PMC8224453, “A New PqsR Inverse Agonist Potentiates Tobramycin Efficacy to Eradicate Pseudomonas aeruginosa Biofilms” (Advanced Science, 2021)
pIC50: −log10 of the molar value. ≈ marks a conversion by molar mass, not a printed value. Read-outs that look alike come from different tables or passages of the source.

Legend:
[1] = molecular target: T1, PqsR (Pseudomonas aeruginosa, UniProt Q9I4X0); conditions: read-out: IC50 (PqsR); Figure 1B, earlier hits; cited from earlier work
T1 construct: which expresses PqsR and the β-galactosidase LacZ under the control of the pqsA promoter; expressed in transfected cells; host or cells: E. coli DH5α carrying plasmid pEAL08-2
T1 sequence (Q9I4X0 whole entry): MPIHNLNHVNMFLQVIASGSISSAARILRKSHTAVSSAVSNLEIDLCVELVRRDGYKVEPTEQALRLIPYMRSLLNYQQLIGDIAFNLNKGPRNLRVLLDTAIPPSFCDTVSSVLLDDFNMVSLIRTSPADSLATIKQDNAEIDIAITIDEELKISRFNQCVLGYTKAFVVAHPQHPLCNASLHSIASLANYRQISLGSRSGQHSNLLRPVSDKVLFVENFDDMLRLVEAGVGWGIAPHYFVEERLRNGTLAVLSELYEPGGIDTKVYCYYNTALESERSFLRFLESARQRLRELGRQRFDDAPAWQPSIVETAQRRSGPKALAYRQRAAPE

[2] = molecular target: T1, PqsR; test: PqsR β-galactosidase reporter-gene assay in E. coli DH5α; assay type: cell-based; conditions: for IC50 PqsR: E. coli reporter-gene assay, result in words
Protocol: 3. Primary Activity Assays
The inverse agonistic/antagonistic activity of potential PqsR ligands was evaluated in a β-galactosidase reporter gene assay in E. coli as previously described.[3] In short, test compounds were co-incubated with E. coli DH5α cells containing the plasmid pEAL08-2,[4] which expresses PqsR and the β-galactosidase LacZ under the control of the pqsA promoter.
The inverse agonistic/antagonistic activity of compounds was measured in the presence of 50 nM PQS. After incubation, galactosidase activity was quantified photometrically and expressed as ratio of controls. The given IC50 values represent the mean of at least two independent experiments using at least eight different concentrations of test compound with n = 4. Non-linear regression analysis was performed using OriginPro 2020. […]

[3] = system: pyocyanin production in PA14 wt; test: Pyocyanin assay in PA14 wt; assay type: cell-based; conditions: Pseudomonas aeruginosa, PA14, read-out: IC50 pyocyanin
Protocol: The pyocyanin inhibitory effect of the synthesized compounds and the compound (4) loaded SqNPs on PA14 wt were investigated by pyocyanin assay as described in previous work.[2,5] Briefly, PA14 wt was grown in PPGAS medium, overnight, at 37 °C, shaking at 200 rpm. The bacterial suspension was then centrifuged at 7.450 g, washed twice and diluted to a final OD600 (absorption at 600 nm) of 0.02 (2∙10^7 CFU/mL) in fresh PPGAS. 1.5 mL of the […]
(1 picture or pasted object on this page, not shown here) […]
culture was distributed in each well of the 24 well-plate. The free synthesized QSI prepared in DMSO, compound (4) loaded SqNPs were supplemented to bacteria-containing wells (1:100 dilutions). PA14 wt treated with either PBS or drug-free SqNPs (200 μg/mL) served as controls. Following 16 h incubation under aerobic conditions, pyocyanin in 900 μL of bacteria culture was extracted with chloroform and re-extracted with 0.2 M HCl. Pyocyanin production level was measured as the absorption at 520 nm, which was normalized to cell growth measured as OD600. 0.2 M HCl served as blank samples. Three independent experiments were conducted in triplicate. Non-linear regression analysis was performed using […]
(4) loaded SqNPs on PA14 wt. The pyocyanin inhibitory efficacy was improved by a factor of […]
It is noted that as reported in our prior
Figure S2. The production of pyocyanin levels compared to control PA14 wide type (wt) of the samples treated with 200 μg/mL drug free SqNPs. Three independent experiments were conducted in triplicate. […]
(also on this page, place not known: ( 4) -containing -free bacteria re -extracted compo und ( 4) (IC 50 nM ) (IC 50 nM ). drug P A14 5,6,7,8 -tetradeutero-2-heptyl-4(1H)-quinolone standa rd -40 -20 0 20 40 60 80 100 120 0.005 0.05 0.5 pyo production inhibition [%] Compound concentration loaded SqNPs [µM] IC50 = 100 ± 0.018 [nM])

[4] = Metabolic stability half-life (matrix not given); assay type: in vitro ADME; conditions: matrix not stated; read-out: metabolic stability half-life t 1/2
Protocol: First, we evaluated the most promising compounds considering in vitro pharmacokinetic properties such as solubility and metabolic stability. […] Compounds 4 and 19 were moderately stable with half‐lives of 10 and 19 min, respectively.

[5] = Kinetic turbidimetric solubility assay; assay type: physicochemical; conditions: PBS, aqueous buffer, kinetic from dmso stock, read-out: Kinetic solubility S kin
Protocol: 5.4. Kinetic Turbidimetric Solubility Assay
The desired compounds were sequentially diluted in DMSO in a 96-well plate. A 3 µL of each well were transferred into another three 96-well plates, followed by addition of 147 µL of PBS. Plates were shaken for 5 min at 600 rpm at room temperature (r.t.), and the absorbance at 620 nm was measured. Absorbance values were normalized by blank […]
subtraction and plotted using GraphPad Prism 8.4.2 (GraphPad Software, San Diego, CA, […]

| Compound | pIC50 [2] | pIC50 [3] | other results |
| --- | --- | --- | --- |
| Nc1cccc(C(F)(F)F)n1 [Compound 1] | – | – | pIC50 [1]: 4.48 |
| Fc1ccc(-n2cc(CNc3ccnc(C(F)(F)F)c3)nn2)cc1 [Compound 3] | 6.71 | < 5.30 | – |
| Fc1cccc(-n2cc(CNc3ccnc(C(F)(F)F)c3)nn2)c1 [Compound 5] | – | < 5.30 | IC50 PqsR [2]: inactive |
| Fc1ccccc1-n1cc(CNc2ccnc(C(F)(F)F)c2)nn1 [Compound 6] | – | < 5.00 | IC50 PqsR [2]: inactive |
| FC(F)(F)c1cc(NCc2cn(-c3ccccc3Cl)nn2)ccn1 [Compound 7] | – | < 5.30 | IC50 PqsR [2]: inactive |
| FC(F)(F)c1cc(NCc2cn(-c3cccc(Cl)c3)nn2)ccn1 [Compound 8] | 6.91 | < 5.60 | – |
| FC(F)(F)c1cc(NCc2cn(-c3ccc(Cl)cc3)nn2)ccn1 [Compound 9] | 7.10 | 5.11 | – |
| Oc1ccc(-n2cc(CNc3ccnc(C(F)(F)F)c3)nn2)cc1 [Compound 10] | – | – | IC50 PqsR [2]: inactive ^a) |
| COc1ccc(-n2cc(CNc3ccnc(C(F)(F)F)c3)nn2)cc1 [Compound 11] | 7.09 | 5.60 | – |
| FC(F)(F)Oc1ccc(-n2cc(CNc3ccnc(C(F)(F)F)c3)nn2)cc1 [Compound 12] | 7.52 | 5.93 | – |
| FC(F)(F)c1ccc(-n2cc(CNc3ccnc(C(F)(F)F)c3)nn2)cc1 [Compound 13] | 6.89 | < 5.30 | – |
| N#Cc1ccc(-n2cc(CNc3ccnc(C(F)(F)F)c3)nn2)cc1 [Compound 14] | 6.18 | < 5.00 | – |
| FC(F)(F)c1cc(NCc2cn(-c3ccc(Nc4ccccc4)cc3)nn2)ccn1 [Compound 15] | 7.51 | 5.97 | – |
| FC(F)(F)c1cc(NCc2cn(-c3ccc(Cl)c(Cl)c3)nn2)ccn1 [Compound 16] | 7.62 | 6.45 | – |
| FC(F)(F)Oc1ccc(-n2cc(CNc3ccnc(C(F)(F)F)c3)nn2)cc1Cl [Compound 18] | 7.82 | 6.36 | half-life [4]: 55 min; solubility kinetic at 5 min [5]: 31.3 µM (≈ 13.7 µg/mL) |
| FC(F)(F)c1cc(NCc2cn(-c3ccc(Oc4ccccc4)c(Cl)c3)nn2)ccn1 [Compound 19] | 7.92 | 6.74 | half-life [4]: 19 min |
| Nc1cc(NCc2cn(-c3ccc(Oc4ccccc4)cc3)nn2)cc(C(F)(F)F)n1 [Compound 20] | – | 6.45 | solubility kinetic at 5 min [5]: 13 µM (≈ 5.54 µg/mL) |
